From US10457642B2, “211-astatine containing radiotherapeutics for the treatment of cancer” (The Trustees of The University of Pennsylvania, priority 2015, dated 2019)
Values joined by “and” are separate entries in the source; they are usually repeats but may differ in a detail not shown here. Identical values can stand only once. Like-named read-outs stand apart in the source and are kept apart here.

What was measured:
[1] = in vivo; cited from earlier work
[2] = target: T1, sigma-2 receptor (Homo sapiens, UniProt Q5BJF2); assay: In vitro live cellular binding studies in MDA-MB-231 breast cancer cells; conditions: MDA-MB-231 cells
T1 construct: was evaluated in MDA-MB-231 breast cancer cells (ATCC-HTB-26) known to have high sigma-2 receptor density; host or cells: MDA-MB-231 (living, plated cells)
T1 sequence (Q5BJF2 whole entry): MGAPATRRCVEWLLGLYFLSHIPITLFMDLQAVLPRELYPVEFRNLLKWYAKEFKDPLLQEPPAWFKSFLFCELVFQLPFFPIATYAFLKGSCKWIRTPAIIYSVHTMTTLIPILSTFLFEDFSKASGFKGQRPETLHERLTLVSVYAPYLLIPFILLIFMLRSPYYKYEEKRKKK
Protocol: MDA-MB-231 were cultured in Minimum Essential Media (MEM) with added nutrients, 10% fetal bovine serum (FBS) and 1% penicillin/streptomycin at 5% CO2 and 37° C. Twenty-four hours before assay cells were plated at 50,000 cell/well in 96-well format. Two solutions of freshly synthesized radioligand were diluted to a concentration of approximately 2,000 cpm/μL in phosphate buffered saline with calcium and magnesium (PBS w/ Ca^2+ and Mg^2+), with and without non-radioactive 100 μM of the standard to determine non-specific binding. […] Total volume of treatment in each well was 50 μL. PBS w/ Ca^2+ and Mg^2+ without substrate was added to the last row of wells and was used for protein quantification at the end of the experiment. Treatment was removed at time points over the course of 2 h (n=4/time point). At each time of treatment removal, wells were washed with PBS×3. At the end of the experiment wells were counted on an automatic gamma counter using a custom protocol with an energy window of 70-110 KeV (Wizard™ 2470, Perkin Elmer, Waltham Mass.). Protein quantification was performed using a modified Lowry method. Independent experiments were repeated in triplicate. One-phase association kinetics were modeled using Prism™ software version 6.0 (La Holla, Calif.).

[3] = Protocol: Tumors were grown by subcutaneously injecting 1×10^6 EMT-6 mouse breast cancer cells (ATCC #CRL-2755) into the flanks of female BALB/c mice (Taconic). Tumors were an appropriate size of approximately 200 mm^3 after 14 days of growth. On the day of experiment 10 μCi of newly synthesized ^211At—N-(6,7-dimethoxy-3,4-dihydroisoquinolin-2(1H)-yl)butyl)-2,3-dimethoxybenzamide in saline (ethanol<5%) was administered intravenously to mice under isoflurane anesthesia. Mice were sacrificed by cervical dislocation followed by immediate cardiac puncture post administration at time points of 5 min, 1, 2, 4, 8, and 24 h (n=4 mice/time point). Tissue harvested included; blood, heart, muscle, lung, kidney, pancreas, spleen, liver, skin, brain, thyroid, stomach and EMT-6 tumor. Tissues were weighed and counted on an automatic gamma counter as previously described. All animal experiments were conducted under IACUC-approved protocols compliant with University of Pennsylvania guidelines for the care and use of research animals.

In the case of COc1cc2c(cc1OC)CN(CCCCNC(=O)c1cc(I)cc(OC)c1OC)CC2 [iodinated sigma-2 ligand standard, 5-iodo-N-(4-(6,7-dimethoxy-3,4-dihydroisoquinolin-2(1H)-yl)butyl)-2,3-dimethoxybenzamide], the tumor uptake [1] is listed as 2 % ID/g.
For COc1cc2c(cc1OC)CN(CCCCNC(=O)c1cc([211At])cc(OC)c1OC)CC2 [^211At—N-(6,7-dimethoxy-3,4-dihydroisoquinolin-2(1H)-yl)butyl)-2,3-dimethoxybenzamide], the “reduction in total binding through the addition of the standard” value ([2]; +100 μM non-radioactive standard) was 80%, the “time of 50% maximal binding (T1/2)” value ([2]; one-phase association) was 12.51 min and the “Decay corrected biodistribution, Blood” value ([3]; 5 min after i.v.) was 4.06 ± 0.19 % ID/g. For the same compound, the “Decay corrected biodistribution, Blood” value ([3]; 1 h after i.v.) was 2.12 ± 0.15 % ID/g, the “Decay corrected biodistribution, Blood” value ([3]; 2 h after i.v.) was 2.43 ± 0.82 % ID/g and the “Decay corrected biodistribution, Blood” value ([3]; 4 h after i.v.) was 1.64 ± 0.11 % ID/g. For the same compound, the “Decay corrected biodistribution, Blood” value ([3]; 8 h after i.v.) was 1.82 ± 0.10 % ID/g, the “Decay corrected biodistribution, Blood” value ([3]; 24 h after i.v.) was 0.44 ± 0.10 % ID/g and the “Decay corrected biodistribution, Brain” value ([3]; 5 min after i.v.) was 1.95 ± 0.14 % ID/g. For the same compound, the “Decay corrected biodistribution, Brain” value ([3]; 1 h after i.v.) was 0.46 ± 0.08 % ID/g, the “Decay corrected biodistribution, Brain” value ([3]; 2 h after i.v.) was 0.39 ± 0.01 % ID/g and the “Decay corrected biodistribution, Brain” value ([3]; 4 h after i.v.) was 0.21 ± 0.02 % ID/g. For the same compound, the “Decay corrected biodistribution, Brain” value ([3]; 8 h after i.v.) was 0.25 ± 0.02 % ID/g, the “Decay corrected biodistribution, Brain” value ([3]; 24 h after i.v.) was 0.07 ± 0.02 % ID/g and the “retention of radioactivity in the tumor, time post administration” value ([3]; EMT-6 tumor) was 1 to 8 h. The “Decay corrected biodistribution, Tumor” value ([3]; EMT-6 tumor, 5 min after i.v.) was 0.74 ± 0.07 % ID/g, the “Decay corrected biodistribution, Tumor” value ([3]; EMT-6 tumor, 1 h after i.v.) was 4.40 ± 0.15 % ID/g and the “Decay corrected biodistribution, Tumor” value ([3]; EMT-6 tumor, 2 h after i.v.) was 4.93 ± 0.78 % ID/g. The “Decay corrected biodistribution, Tumor” value ([3]; EMT-6 tumor, 4 h after i.v.) was 5.05 ± 0.68 % ID/g, the “Decay corrected biodistribution, Tumor” value ([3]; EMT-6 tumor, 8 h after i.v.) was 5.11 ± 0.09 % ID/g and the “Decay corrected biodistribution, Tumor” value ([3]; EMT-6 tumor, 24 h after i.v.) was 1.34 ± 0.37 % ID/g. For the same compound, the Tumor accumulation ([3]; EMT-6 tumor, from 1 h to at least 8 h) was “above 4 % ID/g”, the “Decay corrected biodistribution, Heart” value ([3]; 5 min after i.v.) was 10.2 ± 0.82 % ID/g and the “Decay corrected biodistribution, Heart” value ([3]; 1 h after i.v.) was 5.16 ± 1.21 % ID/g. The “Decay corrected biodistribution, Heart” value ([3]; 2 h after i.v.) was 4.70 ± 0.31 % ID/g, the “Decay corrected biodistribution, Heart” value ([3]; 4 h after i.v.) was 3.54 ± 0.17 % ID/g and the “Decay corrected biodistribution, Heart” value ([3]; 8 h after i.v.) was 4.01 ± 0.29 % ID/g. The “Decay corrected biodistribution, Heart” value ([3]; 24 h after i.v.) was 1.14 ± 0.27 % ID/g, the “Decay corrected biodistribution, Kidney” value ([3]; 5 min after i.v.) was 47.7 % ID/g and 47.7 ± 2.32 % ID/g and the “Decay corrected biodistribution, Kidney” value ([3]; 1 h after i.v.) was 5.83 % ID/g and 5.83 ± 0.53 % ID/g. For the same compound, the “Decay corrected biodistribution, Kidney” value ([3]; 2 h after i.v.) was 5.59 ± 0.35 % ID/g, the “Decay corrected biodistribution, Kidney” value ([3]; 4 h after i.v.) was 2.97 ± 0.13 % ID/g and the “Decay corrected biodistribution, Kidney” value ([3]; 8 h after i.v.) was 3.24 ± 0.21 % ID/g. For the same compound, the “Decay corrected biodistribution, Kidney” value ([3]; 24 h after i.v.) was 1.05 ± 0.23 % ID/g, the “Decay corrected biodistribution, Liver” value ([3]; 5 min after i.v.) was 18.1 ± 2.11 % ID/g and the “Decay corrected biodistribution, Liver” value ([3]; 1 h after i.v.) was 6.39 ± 3.27 % ID/g. The “Decay corrected biodistribution, Liver” value ([3]; 2 h after i.v.) was 4.63 ± 1.01 % ID/g, the “Decay corrected biodistribution, Liver” value ([3]; 4 h after i.v.) was 1.87 ± 0.17 % ID/g and the “Decay corrected biodistribution, Liver” value ([3]; 8 h after i.v.) was 1.86 ± 0.19 % ID/g. The “Decay corrected biodistribution, Liver” value ([3]; 24 h after i.v.) was 0.59 ± 0.20 % ID/g, the “Decay corrected biodistribution, Lung” value ([3]; 5 min after i.v.) was 20.2 ± 1.39 % ID/g and the “Decay corrected biodistribution, Lung” value ([3]; 1 h after i.v.) was 7.14 ± 1.03 % ID/g. For the same compound, the “Decay corrected biodistribution, Lung” value ([3]; 2 h after i.v.) was 6.42 ± 0.39 % ID/g, the “Decay corrected biodistribution, Lung” value ([3]; 4 h after i.v.) was 5.74 ± 0.53 % ID/g and the “Decay corrected biodistribution, Lung” value ([3]; 8 h after i.v.) was 6.23 ± 0.57 % ID/g. The “Decay corrected biodistribution, Lung” value ([3]; 24 h after i.v.) was 2.21 ± 0.40 % ID/g, the “Decay corrected biodistribution, Muscle” value ([3]; 5 min after i.v.) was 0.69 ± 0.16 % ID/g and the “Decay corrected biodistribution, Muscle” value ([3]; 1 h after i.v.) was 1.24 ± 0.18 % ID/g. The “Decay corrected biodistribution, Muscle” value ([3]; 2 h after i.v.) was 1.15 ± 0.07 % ID/g, the “Decay corrected biodistribution, Muscle” value ([3]; 4 h after i.v.) was 0.56 ± 0.03 % ID/g and the “Decay corrected biodistribution, Muscle” value ([3]; 8 h after i.v.) was 0.61 ± 0.04 % ID/g. For the same compound, the “Decay corrected biodistribution, Muscle” value ([3]; 24 h after i.v.) was 0.19 ± 0.01 % ID/g, the “Decay corrected biodistribution, Pancreas” value ([3]; 5 min after i.v.) was 8.81 ± 1.21 % ID/g and the “Decay corrected biodistribution, Pancreas” value ([3]; 1 h after i.v.) was 18.1 ± 1.60 % ID/g. The “Decay corrected biodistribution, Pancreas” value ([3]; 2 h after i.v.) was 18.0 ± 1.65 % ID/g, the “Decay corrected biodistribution, Pancreas” value ([3]; 4 h after i.v.) was 26.3 ± 2.11 % ID/g and the “Decay corrected biodistribution, Pancreas” value ([3]; 8 h after i.v.) was 21.1 ± 2.35 % ID/g. The “Decay corrected biodistribution, Pancreas” value ([3]; 24 h after i.v.) was 5.78 ± 0.89 % ID/g, the “Decay corrected biodistribution, Skin” value ([3]; 5 min after i.v.) was 0.58 ± 0.05 % ID/g and the “Decay corrected biodistribution, Skin” value ([3]; 1 h after i.v.) was 2.30 ± 0.23 % ID/g. For the same compound, the “Decay corrected biodistribution, Skin” value ([3]; 2 h after i.v.) was 2.66 ± 0.30 % ID/g, the “Decay corrected biodistribution, Skin” value ([3]; 4 h after i.v.) was 1.79 ± 0.15 % ID/g and the “Decay corrected biodistribution, Skin” value ([3]; 8 h after i.v.) was 2.10 ± 0.42 % ID/g. The “Decay corrected biodistribution, Skin” value ([3]; 24 h after i.v.) was 0.85 ± 0.08 % ID/g, the “Decay corrected biodistribution, Spleen” value ([3]; 5 min after i.v.) was 8.41 ± 2.67 % ID/g and the “Decay corrected biodistribution, Spleen” value ([3]; 1 h after i.v.) was 13.2 ± 2.76 % ID/g. The “Decay corrected biodistribution, Spleen” value ([3]; 2 h after i.v.) was 12.0 ± 1.47 % ID/g, the “Decay corrected biodistribution, Spleen” value ([3]; 4 h after i.v.) was 7.59 ± 0.49 % ID/g and the “Decay corrected biodistribution, Spleen” value ([3]; 8 h after i.v.) was 7.49 ± 1.38 % ID/g. For the same compound, the “Decay corrected biodistribution, Spleen” value ([3]; 24 h after i.v.) was 2.14 ± 1.02 % ID/g, the “Decay corrected biodistribution, Stomach” value ([3]; 5 min after i.v.) was 5.87 ± 1.12 % ID/g and the “Decay corrected biodistribution, Stomach” value ([3]; 1 h after i.v.) was 15.9 ± 2.53 % ID/g. For the same compound, the “Decay corrected biodistribution, Stomach” value ([3]; 2 h after i.v.) was 16.3 ± 2.29 % ID/g, the “Decay corrected biodistribution, Stomach” value ([3]; 4 h after i.v.) was 19.7 ± 1.79 % ID/g and the “Decay corrected biodistribution, Stomach” value ([3]; 8 h after i.v.) was 28.2 ± 7.21 % ID/g. The “Decay corrected biodistribution, Stomach” value ([3]; 24 h after i.v.) was 9.88 ± 1.62 % ID/g, the “Decay corrected biodistribution, Thyroid” value ([3]; 5 min after i.v.) was 5.87 ± 0.85 % ID/g and the “Decay corrected biodistribution, Thyroid” value ([3]; 1 h after i.v.) was 11.6 ± 1.01 % ID/g. The “Decay corrected biodistribution, Thyroid” value ([3]; 2 h after i.v.) was 18.3 ± 6.12 % ID/g, the “Decay corrected biodistribution, Thyroid” value ([3]; 4 h after i.v.) was 14.0 ± 4.26 % ID/g and the “Decay corrected biodistribution, Thyroid” value ([3]; 8 h after i.v.) was 13.3 ± 2.96 % ID/g. The “Decay corrected biodistribution, Thyroid” value ([3]; 24 h after i.v.) was 4.87 ± 1.15 % ID/g and the “maximal tumor to muscle ratio” value ([3]; at 4 h) was 9.02.
